Results: paper PMC7413516, “Antidepressant-like activity and safety profile evaluation of 1H-imidazo[2,1-f]purine-2,4(3H,8H)-dione derivatives as 5-HT1A receptor partial agonists” (PLoS ONE, 2020)
Values joined by “and” are separate entries in the source; they are usually repeats but may differ in a detail not shown here. Equal entries are not always repeated. “Also recorded” adds a separate entry of the source.

What was measured:
[1] = Body weight measurement in the 17-day experiment; format: in vivo, Swiss albino mice; conditions: for body weight Mean / body weight: mouse, 0.625 mg/kg
Method: (§1) The Swiss albino mice were used in the experiment. AZ-853 and AZ-861 were injected once daily for 16 consecutive days. On the 1st and 15th day the administration of the compounds, 18-h spontaneous animal activity was registered (see below). FST, as described earlier, was performed on the 14th day just before the next treatment. To ensure that the effects observed in FST are not the result of increased motility of animals, on the 13th day, just before the next administration, the locomotor activity was measured as described earlier, from 2 to 6 min after test start, i.e. in the period identical to the duration of FST. Blood and organ collection was performed on the 17th day at 24 h after the last dose and fasting.
The body weight was measured daily immediately prior to administration of the drugs. On the 17th day, the blood was collected from the Swiss albino mice sacrificed by decapitation 20 min after i.p. administration of heparin (2500 units/mouse) and then centrifuged at 600 × g (15 min, 4°C) to separate plasma. The liver, heart, and kidney were also collected and weighed.

mice = assay: Spontaneous activity monitoring (RFID TraffiCage, 18 h); format: in vivo, Swiss albino mice; conditions: for Mean counts, spontaneous activity: 0.625 mg/kg
Method: as §1
The spontaneous activity of the mice was measured on the 1st and 15th day of the treatment with a special, innovative radiofrequency identification system (RFID-system)—TraffiCage (TSE-Systems, Germany). The test was conducted according to the method described in the literature. The animals had the transmitter (RFID) subcutaneously implanted, which tracked the time they spent in different areas of the cage. The data obtained were then grouped in a special computer program.

[2] = molecular target: T1, human serotonin 5-HT1A receptor (Homo sapiens, UniProt P08908); assay: ERK1/2 phosphorylation (SureFire Alpha LISA, CHO-K1 5HT1AR cells)
T1 sequence (P08908 1-422): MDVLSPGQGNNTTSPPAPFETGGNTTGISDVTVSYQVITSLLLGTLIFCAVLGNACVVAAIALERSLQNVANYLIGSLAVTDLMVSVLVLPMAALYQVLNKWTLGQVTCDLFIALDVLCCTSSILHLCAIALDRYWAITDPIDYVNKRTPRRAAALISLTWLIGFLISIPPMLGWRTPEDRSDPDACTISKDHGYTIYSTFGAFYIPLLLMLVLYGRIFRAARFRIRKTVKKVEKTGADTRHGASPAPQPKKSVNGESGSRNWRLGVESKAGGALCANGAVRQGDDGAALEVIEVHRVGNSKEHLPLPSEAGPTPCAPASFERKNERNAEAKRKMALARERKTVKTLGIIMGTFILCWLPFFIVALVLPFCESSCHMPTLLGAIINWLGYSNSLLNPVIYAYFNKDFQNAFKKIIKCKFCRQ
Method: CHO-K1 cell line transfected with 5-HT1A receptor, were commercially obtained from Perkin Elmer (Cat. No. ES-310-C, Lot Number M2W-C1). Cells were cultured according to manufacturer’s instruction. […] Geneticin-resistant clones were obtained by limit dilution and compared for receptor expression levels using a radioligand binding assay. The clone with the highest receptor expression level was selected for characterization in binding and functional assays. […] Corresponding Protein Sequence: Identical to GenBank NP_000515.2. Receptor expression level (BMAX): Estimated to be 3.7 ± 2.3 pmol/mg protein, using [3H] […] This cell line tested negative for mycoplasma.

[3] = 18-h monitoring, AZ-853 0.625, AZ-861 1.25 mg/kg b.w./day

Cn1c(=O)c2c(nc3n(CCCCN4CCN(c5ccccc5F)CC4)ccn23)n(C)c1=O [AZ-853, 8-(4-(4-(2-fluorophenyl)piperazin-1-yl)butyl)-1,3-dimethyl-1H-imidazo[2,1-f]purine-2,4(3H,8H)-dione]
effect on body weight ([1]; mice, repeated i.p. once daily, AZ-853 0.625 mg/kg (from 10th day), AZ-861 1.25 mg/kg (2nd, 3rd, 4th day)): slight but significant increase in body weight | body weight Mean ([1]; day 1, group mean): 23.45 g | body weight ([1]; day 1, individual mouse): 24.7 g (2×) and 22.9 g and 21.9 g and 25.0 g and 23.8 g and 23.0 g and 21.7 g (2×) and 25.1 g | body weight Mean ([1]; day 2, group mean): 23.55 g | body weight ([1]; day 2, individual mouse): 24.9 g and 23.5 g and 24.2 g and 22.6 g and 24.5 g and 23.3 g and 22.7 g and 21.2 g and 22.0 g and 26.6 g | body weight Mean ([1]; day 3, group mean): 23.90 g | body weight ([1]; day 3, individual mouse): 25.0 g (2×) and 24.0 g (3×) and 23.0 g (2×) and 22.0 g (2×) and 27.0 g | body weight Mean ([1]; day 4, group mean): 23.70 g | body weight ([1]; day 4, individual mouse): 24.0 g (4×) and 25.0 g and 22.0 g (3×) and 23.0 g and 27.0 g | body weight Mean ([1]; day 5, group mean): 23.80 g | body weight ([1]; day 5, individual mouse): 23.3 g and 23.8 g and 24.9 g and 22.7 g and 24.6 g and 23.7 g and 23.6 g and 22.2 g and 22.8 g and 26.4 g | body weight Mean ([1]; day 6, group mean): 23.85 g | body weight ([1]; day 6, individual mouse): 24.2 g and 23.2 g and 24.4 g and 22.9 g and 24.7 g and 23.9 g and 23.5 g and 21.9 g and 23.4 g and 26.4 g | body weight Mean ([1]; day 7, group mean): 24.10 g | body weight ([1]; day 7, individual mouse): 24.0 g (4×) and 25.0 g (2×) and 23.0 g (3×) and 26.0 g | body weight Mean ([1]; day 8, group mean): 24.50 g | body weight ([1]; day 8, individual mouse): 25.0 g (2×) and 26.0 g (3×) and 23.0 g (3×) and 24.0 g (2×) | body weight Mean ([1]; day 9, group mean): 25.00 g | body weight ([1]; day 9, individual mouse): 25.0 g (2×) and 26.0 g (2×) and 27.0 g (2×) and 23.0 g (2×) and 24.0 g (2×) | body weight Mean ([1]; day 10, group mean): 25.14 g | body weight ([1]; day 10, individual mouse): 25.4 g and 24.9 g and 26.7 g and 23.8 g and 25.2 g and 24.3 g and 24.0 g and 23.7 g and 25.7 g and 27.7 g | body weight Mean ([1]; day 11, group mean): 24.68 g | body weight Mean ([1]; day 12, group mean): 25.52 g | body weight Mean ([1]; day 13, group mean): 25.54 g | body weight Mean ([1]; day 14, group mean): 25.91 g | body weight Mean ([1]; day 15, group mean): 26.09 g | spontaneous activity after the 1st administration vs. control (mice; [3]): increased spontaneous activity in the 1st, 7th, 12th and 13th hour | spontaneous activity after the 15th administration vs. control (mice; [3]): significant increase in activity was observed only in the 1st hour; also recorded: in the 4th, 7th and 9th hour after administration, a significant reduction in spontaneous activity | Mean counts, spontaneous activity (mice; after 1st administration, 1 h after administration): 422.3 counts | Mean counts, spontaneous activity (mice; after 1st administration, 2 h after administration): 229.6 counts | Mean counts, spontaneous activity (mice; after 1st administration, 3 h after administration): 213.6 counts | Mean counts, spontaneous activity (mice; after 1st administration, 4 h after administration): 200.4 counts | Mean counts, spontaneous activity (mice; after 1st administration, 5 h after administration): 179.9 counts | Mean counts, spontaneous activity (mice; after 1st administration, 6 h after administration): 236.7 counts | Mean counts, spontaneous activity (mice; after 1st administration, 7 h after administration): 254.4 counts | Mean counts, spontaneous activity (mice; after 1st administration, 8 h after administration): 265.9 counts | Mean counts, spontaneous activity (mice; after 1st administration, 9 h after administration): 189.1 counts | Mean counts, spontaneous activity (mice; after 1st administration, 10 h after administration): 250.4 counts | Mean counts, spontaneous activity (mice; after 1st administration, 11 h after administration): 226.9 counts | Mean counts, spontaneous activity (mice; after 1st administration, 12 h after administration): 397.9 counts | Mean counts, spontaneous activity (mice; after 1st administration, 13 h after administration): 346.3 counts | Mean counts, spontaneous activity (mice; after 1st administration, 14 h after administration): 365.0 counts | Mean counts, spontaneous activity (mice; after 1st administration, 15 h after administration): 380.1 counts | Mean counts, spontaneous activity (mice; after 1st administration, 16 h after administration): 407.7 counts | Mean counts, spontaneous activity (mice; after 1st administration, 17 h after administration): 351.3 counts | Mean counts, spontaneous activity (mice; after 1st administration, 18 h after administration): 351.3 counts | Mean counts, spontaneous activity (mice; after 15th administration, 1 h after administration): 324.3 counts | Mean counts, spontaneous activity (mice; after 15th administration, 2 h after administration): 152.7 counts | Mean counts, spontaneous activity (mice; after 15th administration, 3 h after administration): 148.6 counts | Mean counts, spontaneous activity (mice; after 15th administration, 4 h after administration): 120.0 counts | Mean counts, spontaneous activity (mice; after 15th administration, 5 h after administration): 166.6 counts | Mean counts, spontaneous activity (mice; after 15th administration, 6 h after administration): 110.9 counts | Mean counts, spontaneous activity (mice; after 15th administration, 7 h after administration): 134.7 counts | Mean counts, spontaneous activity (mice; after 15th administration, 8 h after administration): 144.6 counts | Mean counts, spontaneous activity (mice; after 15th administration, 9 h after administration): 138.1 counts | Mean counts, spontaneous activity (mice; after 15th administration, 10 h after administration): 272.4 counts | Mean counts, spontaneous activity (mice; after 15th administration, 11 h after administration): 256.9 counts | Mean counts, spontaneous activity (mice; after 15th administration, 12 h after administration): 347.2 counts | Mean counts, spontaneous activity (mice; after 15th administration, 13 h after administration): 396.8 counts | Mean counts, spontaneous activity (mice; after 15th administration, 14 h after administration): 307.7 counts | Mean counts, spontaneous activity (mice; after 15th administration, 15 h after administration): 281.8 counts | Mean counts, spontaneous activity (mice; after 15th administration, 16 h after administration): 249.2 counts | Mean counts, spontaneous activity (mice; after 15th administration, 17 h after administration): 304.0 counts | Mean counts, spontaneous activity (mice; after 15th administration, 18 h after administration): 356.3 counts | EC50 [2]: 6.61 nM | Emax ([2]; CHO-K1, read-out: Emax (%) ± SEM, agonist mode): 60 ± 2% | decreased efficacy as compared to 5-HT ([2]; p-ERK1/2): 1.6 fold | increased potency as compared to 5-HT ([2]; p-ERK1/2): 1.5 fold
